In patent US5886190A, “Rapid synthesis and use of 18F-fluoromisonidazole and analogs” (priority 1997, dated 1999):
Several values for one entry are separate records, joined by “and”; a condition that tells them apart may be missing. Identical values can stand only once. Like-named read-outs stand apart in the source and are kept apart here.

Key:
VX2 tumor = settings: 4 mCi; 1 hour postinjection
Description: (§1) The synthesis scheme for [^18 F]FETNIM is depicted in FIG. 6. Biodistribution studies of [^18 F]FETNIM were performed at 1, 2 and 4 hours in mammary tumor-bearing rats (10 μCi, iv, N=3/time interval). Autoradiograms were performed at 1 hour postinjection of [^18 F]FETNIM, and a comparison has been made with [^18 F]fluoromisonidazole (FMISO). Intratumoral oxygen tension measurements were performed using the Eppendorf computerized histographic system. Twenty to twenty-five pO2 measurements along each of 2 to 3 linear tracks were performed at 0.4 mm intervals on each tumor. PET imaging studies of [^18 F]FETNIM were performed in rabbits bearing V2 tumors (N=3, 4 mCI, iv) which were located on the right leg.
PET imaging was performed with a positron camera (Positron Corporation, Houston, Tex.). The tomograph has a field-of-view of 42 cm on transverse and 12 cm on coronal planes. The axial resolution on the reconstructed plane is 1.2 cm.
Three male New Zealand white rabbits each weighing 3 kg were inoculated at a single site in the right buttock area with a 0.5 ml suspension of minced VX2 tumor fragments (10^6 cells/rabbit). The tumors are maintained through serial animal passage and are available from the Department of Veterinary Medicine (The University of Texas M.D. Anderson Cancer Center, Houston, Tex.). […]

[1] = Hydrophilicity (from autoradiogram and chemistry); type: physicochemical; settings: relative to comparator named in value
hypoxic cells = experiment: Selectivity to hypoxic cells (PET imaging, autoradiograms, biodistribution); settings: in vivo
Description: as §1
PET imaging was performed with a positron camera (Positron Corporation, Houston, Tex.). The tomograph has a field-of-view of 42 cm on transverse and 12 cm on coronal planes. The axial resolution on the reconstructed plane is 1.2 cm. […]
Female Fischer 344 rats (250-275 g) (Harlan, Inc., Indianapolis, Ind.) were inoculated with mammary tumor cells in the lumbar area using a 13762 tumor cell line (s.c. 10^5 cells/rat). […] The tissues were excised, weighed and counted for radioactivity. The percent of injected dose per gram of tissue weight was determined.

mammary tumor = experiment: Autoradiographic studies in tumor-bearing rats; settings: 1 hour postinjection
Description: as §1
Female Fischer 344 mammary tumor-bearing rats (n=3) after receiving [^18 F]FETNIM (2 mCi, iv) were sacrificed at 1 h. […] The rats were sacrificed at 1 hour postinjection. The rat body was fixed in a carboxymethyl cellulose (4%) block. The frozen body in a block was mounted to a cryostat (LKB 2250 cryo-microtome, Ijamsville, Md.) and 40 μm coronal sections were made. The section was freeze dried, then mounted on a x-ray film (X-Omat AR, Kodak, Rochester, N.Y.) for 24 hours.

[2] = tested on: mammary tumor cells (13762 tumor cell line); settings: for Tumor/blood count density ratio / Tumor/liver count density ratio / Tumor/muscle count density ratio / Blood, percent of injected dose/gram weight / Bone, percent of injected dose/gram weight / Kidney, percent of injected dose/gram weight / Liver, percent of injected dose/gram weight / Lung, percent of injected dose/gram weight / Muscle, percent of injected dose/gram weight / Spleen, percent of injected dose/gram weight / Tumor, percent of injected dose/gram weight: 10 μCi/rat iv, N = 3
Description: as §1
Female Fischer 344 rats (250-275 g) (Harlan, Inc., Indianapolis, Ind.) were inoculated with mammary tumor cells in the lumbar area using a 13762 tumor cell line (s.c. 10^5 cells/rat). […] Three groups of rats (N=3/group) were anesthetized with ketamine (10-15 mg/rat). The ^18 F-FETNIM reconstituted in 5% ethanol/saline was given to rats (10 μCi/rat, iv) and tissue distribution was conducted at 1h, 2h and 4h intervals. The tissues were excised, weighed and counted for radioactivity. The percent of injected dose per gram of tissue weight was determined.

patients = settings: cited from earlier work; for Dose-limiting toxicity: clinical trials
cancer of the pharynx = settings: cited from earlier work; for Radiosensitizer potency: human, in vivo; for Clinical benefit on addition: patients with high hemoglobin levels and cancer of the pharynx
[3] = in mice; cited from earlier work
[4] = 1 hour, listed as [^18 F] Fluoroerythronitroimidazole
[5] = 2 hour, listed as [^18 F] Fluoroerythronitroimidazole
[6] = 4 hour, listed as [^18 F] Fluoroerythronitroimidazole

O=[N+]([O-])c1nccn1C[C@H](O)[C@H](O)CF [[^18 F]FETNIM, [^18 F]fluoroerythro-2-nitroimidazole]
SUV value of the tumor (VX2 tumor): greater than 10
Hydrophilicity [1]: more hydrophilic than [^18 F]FMISO
Hydrophilicity ([1]; listed as [^18 F]fluoroerythronitroimidazole): more hydrophilic than misonidazole
Selectivity to hypoxic cells (hypoxic cells): selective to hypoxic cells
Tumor visualization by autoradiography (mammary tumor; 2 mCi iv): the tumor could be visualized 1 hour postinjection
Uptake in the center region of the tumor (mammary tumor; 2 mCi iv): lack of uptake
Uptake in intestines and colon (mammary tumor): high uptake
Uptake in medullary of the kidney area (mammary tumor): higher uptake
Differentiation of hypoxic versus necrotic regions in the tumor (mammary tumor; autoradiogram): could differentiate hypoxic versus necrotic regions in the tumor
Tumor/muscle, tumor/blood and tumor/liver count density ratios, change with time ([2]; 1, 2 and 4 h): showed increases with time
Tumor/blood count density ratio ([2]; 1 hour): 2.29±0.599
Tumor/liver count density ratio ([2]; 1 hour): 1.7600 ± 0.4415
Tumor/muscle count density ratio ([2]; 1 hour): 0.66±0.267
Tumor/blood count density ratio [2, 4]: 2.2900 ± 0.5994
Tumor/muscle count density ratio [2, 4]: 0.6602 ± 0.2666
Tumor/blood count density ratio ([2]; 2 hour): 2.41±0.567
Tumor/liver count density ratio ([2]; 2 hour): 1.7700 ± 0.2561
Tumor/muscle count density ratio ([2]; 2 hour): 2.11±0.347
Tumor/blood count density ratio [2, 5]: 2.4100 ± 0.5672
Tumor/muscle count density ratio [2, 5]: 2.1100 ± 0.3468
Tumor/blood count density ratio ([2]; 4 hour): 8.0±2.42 and 8.02±2.420
Tumor/liver count density ratio ([2]; 4 hour): 4.3300 ± 1.31
Tumor/muscle count density ratio ([2]; 4 hour): 5.92±2.240
Tumor/blood count density ratio [2, 6]: 8.0200 ± 2.42
Tumor/muscle count density ratio [2, 6]: 5.9200 ± 2.24
Blood, percent of injected dose/gram weight ([2]; 1 hour): 0.3493 ± 0.02173% of Injected Dose/Gram Weight
Blood, percent of injected dose/gram weight ([2]; 2 hour): 0.1950 ± 0.02828% of Injected Dose/Gram Weight
Blood, percent of injected dose/gram weight ([2]; 4 hour): 0.0993 ± 0.01266% of Injected Dose/Gram Weight
Bone, percent of injected dose/gram weight ([2]; 1 hour): 0.2570 ± 0.14% of Injected Dose/Gram Weight
Bone, percent of injected dose/gram weight ([2]; 2 hour): 0.0810 ± 0.00424% of Injected Dose/Gram Weight
Bone, percent of injected dose/gram weight ([2]; 4 hour): 0.0753 ± 0.0157% of Injected Dose/Gram Weight
Kidney, percent of injected dose/gram weight ([2]; 1 hour): 0.8860 ± 0.00424% of Injected Dose/Gram Weight
Kidney, percent of injected dose/gram weight ([2]; 2 hour): 0.5145 ± 0.02334% of Injected Dose/Gram Weight
Kidney, percent of injected dose/gram weight ([2]; 4 hour): 0.4663 ± 0.06866% of Injected Dose/Gram Weight
Liver, percent of injected dose/gram weight ([2]; 1 hour): 0.4530 ± 0.01493% of Injected Dose/Gram Weight
Liver, percent of injected dose/gram weight ([2]; 2 hour): 0.3123 ± 0.08225% of Injected Dose/Gram Weight
Liver, percent of injected dose/gram weight ([2]; 4 hour): 0.1843 ± 0.02458% of Injected Dose/Gram Weight
Lung, percent of injected dose/gram weight ([2]; 1 hour): 0.3577 ± 0.00723% of Injected Dose/Gram Weight
Lung, percent of injected dose/gram weight ([2]; 2 hour): 0.2107 ± 0.05713% of Injected Dose/Gram Weight
Lung, percent of injected dose/gram weight ([2]; 4 hour): 0.1027 ± 0.02122% of Injected Dose/Gram Weight
Muscle, percent of injected dose/gram weight ([2]; 1 hour): 1.2600 ± 0.08627% of Injected Dose/Gram Weight
Muscle, percent of injected dose/gram weight ([2]; 2 hour): 0.2670 ± 0.09036% of Injected Dose/Gram Weight
Muscle, percent of injected dose/gram weight ([2]; 4 hour): 0.1377 ± 0.01893% of Injected Dose/Gram Weight
Spleen, percent of injected dose/gram weight ([2]; 1 hour): 0.3183 ± 0.02011% of Injected Dose/Gram Weight
Spleen, percent of injected dose/gram weight ([2]; 2 hour): 0.2013 ± 0.05918% of Injected Dose/Gram Weight
Spleen, percent of injected dose/gram weight ([2]; 4 hour): 0.0953 ± 0.01401% of Injected Dose/Gram Weight
Tumor, percent of injected dose/gram weight ([2]; 1 hour): 0.7957 ± 0.2036% of Injected Dose/Gram Weight
Tumor, percent of injected dose/gram weight ([2]; 2 hour): 0.5516 ± 0.1582% of Injected Dose/Gram Weight
Tumor, percent of injected dose/gram weight ([2]; 4 hour): 0.8113 ± 0.3377% of Injected Dose/Gram Weight

O=C(Cn1ccnc1[N+](=O)[O-])NCCO [etanidazole]
Dose-limiting toxicity (patients): peripheral neuropathy that progressed to central nervous system toxicity if drug administration was not stopped
Radiosensitizer potency (cancer of the pharynx): potent radiosensitizers
Clinical benefit on addition (cancer of the pharynx): great benefit

COCC(O)Cn1ccnc1[N+](=O)[O-] (centres unmarked) [misonidazole]
Dose-limiting toxicity (patients): peripheral neuropathy that progressed to central nervous system toxicity if drug administration was not stopped
Most common side effect (patients; human, in vivo): peripheral sensory neuropathy of the hands and feet
Toxicity after large single doses (patients; large single doses): convulsions
Toxicity following small multiple doses (patients; small multiple doses): encephalopathies
Dose which affects the neurotransmitter system [3]: 0.76 mg/g
Radiosensitizer potency (cancer of the pharynx): potent radiosensitizers
Clinical benefit on addition (cancer of the pharynx): great benefit
